Where a name gives a salt, the structure may show the parent alone.

For data set [1], the target named is T1, MMP-8 catalytic domain (residues 85-242) (Homo sapiens, UniProt P22894).
T1 construct: The catalytic domain (residues 85-242) of MMP-8, neutrophil collagenase, folds into a compact globular structure; made in house
Put plainly: X-ray crystallography of MMP-8 catalytic domain inhibitor complexes. Conditions: X-ray crystal structure of the complex, IX, XI relative to compound XII. From the text:
The MMP-8 catalytic domain was cloned by PCR amplification from a cDNA contruct of full-length MMP-8. The amplified DNA was cloned into NdeI/HindIII restriction sites in an in-house pRec expression vector. Protein was expressed in a bacterial expression system by induction with nalidixic acid. Recombinant protein was expressed primarily as inclusion bodies. Purified protein was recovered in high yield following ion exchange chromatography of denatured protein.
Slow dehydration of the drop leads to formation of single crystals of the inhibitor complex. Details are below.
12 mg/ml MMP-8 in 10 mM MES pH 6.0, 100 mM NaCl, 5 mM CaCl2 pre-incubated with 1 mM inhibitor for 10 minutes at ambient temperature.
4 ul of the protein-inhibitor complex mixed with 6.8 ul 10% PEG6000 and 0.2 M MES pH 6.0
0.8 to 2.5 M sodium/potassium phosphate pH 6.0 (not mixed with protein/inhibitor/PEG drop).
Intensities from crystals of the enzyme inhibitor complexes were measured on a MAR image plate at −140° C. X-rays were generated from a rotating anode generator using a Cu target. The CuKα X-rays were focused onto the samples using long Pt and Ni mirrors.
The data were integrated and scaled using the program DENZO (Otwinowski, Z. and Minor W. in Proceedings of CCP4 Study Weekend: Data Collection and Processing (eds. Sawyer, L., Issacs, N., and Bailey, S.) pp. 56-62 (SERC Daresbury Laboratories, Warrington, UK 1993)).
Standard simulated annealing protocols in the program XPLOR (Brünger, A. T. (1993). XPLOR (Version 3.1): A System for X-ray Crystallography and NMR (Yale University Press, New Haven, Conn.)) were used.
New electron density at the expected active site could in all cases be interpreted with flexible, three-dimensional models of the inhibitors as generated in the program […] (Biosym Technologies (1993). Insight II User Guide, Version 2.2.0. San Diego). Solvent positions were also identified from these electron density maps and side chains of the protein were also sometimes manually adjusted.
Final refinements of the structure were carried out with inclusion of inhibitor and solvent ligands. In the refinements, 10% of the data was set aside for cross validation by evaluation of Rfree (A. T. Brünger, “Free R Value: a novel statistical quantity for accessing the accuracy of crystal structures,” Nature 355, 472-475 (1992)).

For a further data set, the system named is cancer-specific antigens. To be noted: meta analysis of Phase I/II studies; advanced, treatment-refractory solid tumor cancers (colorectal, pancreatic, ovarian, prostate); cited from earlier work.
The conditions of data set [2]: clinical trials in cancer patients; cited from earlier work.

T1 sequence (P22894 105-262): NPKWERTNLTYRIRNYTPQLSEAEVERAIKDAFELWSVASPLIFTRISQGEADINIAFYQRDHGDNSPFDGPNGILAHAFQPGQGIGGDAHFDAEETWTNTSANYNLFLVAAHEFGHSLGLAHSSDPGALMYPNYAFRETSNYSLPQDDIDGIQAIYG

Consider `CC(O)(CS(=O)(=O)c1ccc(Oc2ccccc2)cc1)C(=O)NO` (stereo not shown) [Compound XIV, reference compound], for which the “effect on conformation of the amino acid backbone of the S1' pocket of MMP-8” value (“effect on conformation” below) in data set [1] is recorded as “essentially no effect on the conformation of the amino acid backbone”.

For the compound `CCCCCc1ccc(C(=O)Nc2ccc(S(=O)(=O)N(CCN3CCOCC3)[C@@H](C(=O)O)C(C)C)cc2)cc1` [IX, N-[2-(4-morpholinyl)ethyl]-N-[[4-[(4-pentylbenzoyl)amino]phenyl]sulfonyl]-D-valine], in data set [1], the “effect on conformation” value is on record as “causes the backbone to deform significantly”.

Turning to `CCCCCc1ccc(C(=O)Nc2ccc(S(=O)(=O)N(CCN3CCOCC3)[C@@H](C(=O)NO)C(C)C)cc2)cc1` [Compound X, R-N-[4-[[[1-(hydroxyamino)carbonyl]-2-methylpropyl][2-(4-morpholinyl)ethyl]amino]-sulfonyl]phenyl]-4-pentylbenzamide, monohydrochloride], the “effect on conformation” value in data set [1] is “causes the backbone to deform significantly”.

With `CCCc1ccc(C(=O)Nc2ccc(S(=O)(=O)N[C@@H](C(=O)O)C(C)C)cc2)cc1` [XII], the “effect on conformation” value in data set [1] is “essentially no effect on the conformation of the amino acid backbone”.

`CNC(=O)[C@@H](NC(=O)[C@H](CC(C)C)[C@H](O)C(=O)NO)C(C)(C)C` [marimastat]: the “effect on rise of cancer-specific antigens used as surrogate markers for biological activity” value in the data set with cancer-specific antigens was “dose-related reduction in the rise of cancer-specific antigens”. In addition, in data set [2], the “most common drug-related toxicity” value was “musculoskeletal pain and stiffness”.

`CCCCCCc1ccc(C(=O)Nc2ccc(S(=O)(=O)N(CCN3CCOCC3)[C@@H](C(=O)NO)C(C)C)cc2)cc1` [Compound XI, (R)-4-hexyl-N-[4-[[[1-(hydroxyamino)-carbonyl]-2-methylpropyl][2-(4-morpholinyl)ethyl]amino]sulfonyl]-phenylbenzamide, monohydrochloride]: the “effect on conformation” value in data set [1] was “causes the backbone to deform significantly”.
